Measured values as given in patent US20160031937A1, “NEURAL REGENERATION PEPTIDES AND USES THEREFOR” (CURONZ HOLDINGS COMPANY LIMITED, priority 2013, published 2016).
Square brackets hold non-standard residues; d marks the D form. Ends that are not written are not given here. Aib = CC(C)(N)C(=O)O

Experiments:
[1] = target: T1, homodimeric CXCR4 receptor (Homo sapiens, UniProt P61073); assay: 125I-SDF-1 displacement binding study (CEREP); details: recombinant homodimeric CXCR4 expressing HEK293 cells; unlabelled peptide in competition
T1 construct: host or cells: HEK293
Method: This was determined by radioactive ^125I-SDF-1 displacement studies using CXCR4 homodimeric receptors and unlabelled NNZ-4921 and NRP2945 in competition.

[2] = test system: NRP 13q13.2 gene expression; assay: NRP 13q13.2 gene expression by semi-quantitative RT-PCR in NTERA-2 cells; assay type: cell-based, human
Method: mRNA was extracted according to standard procedures (TRIzole® from Invitrogen or RNeasy Mini from Qiagen). The mRNA fraction was subjected to DNase I treatment using DNaseI incubation mixture. For this treatment, 10 μl DNaseI stock plus 70 μl buffer was added to mRNA preparation and incubated for 5 minutes at room temperature. cDNA synthesis was then carried out according to standard procedures (SuperScript® III Reverse Transcriptase from Invitrogen).
The optimized RT-PCR strategy used an intron-spanning forward primer with high GC-content and TM (78° C.) and a reverse primer with a lower TM (60° C.). These primers are shown in FIG. 10, and also further below. The mRNA was treated with DNase I before starting the synthesis of cDNA, as the intron-spanning primer only bridged an intron of 9 nucleic acids.
The expected RT-PCR product was 221 by in length. PCR conditions included annealing at 58° C. and 36 total cycles. Samples were incubated at 94° C. for 5 minutes as the start of the GeneAmp® cycler operation. The 36 cycles included the sequence: 94° C. for 30 seconds; 58° C. for 30 seconds; 72° C. for 30 seconds; followed by cooling to 15° C. at the end of the PCR.
The PCR-reaction included: 10× buffer (2.50 μl), 50 mM MgCl2 (0.75 μl), 10 mM dNTPs (0.50 μl), Primer 1 (0.50 μl), Primer 2 (0.50 μl), Taq Polymerase (0.10 μl), cDNA (1.00 μl ), H2O (19.15 μl), to yield a total volume of 25.00 μl. Taq DNA Polymerase was sourced from Invitrogen (Platinum® Taq Polymerase).
NTERA-2 (ATCC No. CRL-1973) is a human carcinoma derived pluripotent cell line that has only single copies of chromosome 1, 10, 11 and 13. This was the impetus for using 36 cycles of PCR for detection of NRP expression.
Undifferentiated NTERA-2 cells were obtained. Frozen stocks were prepared with a maximum of 2 passages. NRP expression could be assessed in cells having up to 4-5 passages. The cell culture medium included ATCC-formulated DMEM plus 10% FCS. The medium was exchanged every 2-3 days. For passaging, cells were dislodges by scraping and then transferred into 75cm^2 flasks. An initial seeding included 5 million cells in 12-15 ml of cell medium per flask.
Subcultivation was performed for gene expression tests. For subcultivation, cells were dislodged by scraping and then gathered by centrifugation at 1500 rpm for 7 minutes, at 4° C. The media was discarded and the cells were resuspended in 16 ml fresh DMEM/10%FBS. The expected yield was 12-15 million cells in the flask. Thus, the resuspended cells were at a concentration of about 1 million cells per ml.
For passage 3, the remaining 4 ml of cell suspension plus 8 ml culture medium was transferred into new T75 cultivation flask.
[…] All conditions were applied for 15 minutes, 30 minutes, and 60 minutes.
mRNA was then collected. Cells were washed once at the end of the treatment with subsequent cell scraping. Cells were passed through 25-gauge needle into a 15 ml falcon tube. Falcon tube cell content was aspirated, washed once with DMEM, followed by trypsinization. […]
Centrifugation was carried out for 7 minutes at 1500 rpm, at 4° C. The pellets were then ready to be stored either at -80° C. or in liquid nitrogen until RNA extraction.
For RNA extraction, thawed cell pellets were prepared according to manufacturer's instructions (RNeasy Mini from Qiagen). RNA concentration was determined by NanoDropTM. […] For synthesis of sufficient quantities of cDNA, the RNA concentration in the cell samples was ensured to be between 10-20 ng/μl. […]

[3] = normoxic NTERA-2 cells, 1 pM NRP2945

T1 sequence (P61073 whole entry): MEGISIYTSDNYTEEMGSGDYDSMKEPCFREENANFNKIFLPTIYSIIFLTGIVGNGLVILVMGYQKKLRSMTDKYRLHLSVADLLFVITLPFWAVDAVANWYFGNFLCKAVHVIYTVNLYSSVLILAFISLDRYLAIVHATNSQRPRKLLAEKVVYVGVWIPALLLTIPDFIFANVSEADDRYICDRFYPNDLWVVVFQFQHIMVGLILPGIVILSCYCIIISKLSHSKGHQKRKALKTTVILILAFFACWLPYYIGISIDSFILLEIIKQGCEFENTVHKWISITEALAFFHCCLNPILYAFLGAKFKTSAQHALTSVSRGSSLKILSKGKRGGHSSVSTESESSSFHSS

Question: Which results are given for “Gly Arg Arg Ala Ala Pro Gly Arg Aib Gly Gly (GRRAAPGR[Aib]GG) [NRP2945, synthetic 11-mer peptidomimetic optimized for stability and pharmacokinetics]”?
Answer: displacement of 125I-SDF-1 from homodimeric CXCR4 receptor [1]: do not bind to the homodimeric CXCR4 receptor; time to stimulated endogenous NRP gene expression after administration ([2]; NTERA-2 cells, 100 pM NRP2945): 5 to 10 min; NRP 13q13.2 gene expression during oxidative stress ([2]; NTERA-2 cells, 0.5 mM 3-NP with simultaneous 1 pM NRP2945): up-regulated after 15 minutes and stays elevated during the period of analysis; time frame of exposure for up-regulation of endogenous NRP gene expression (13q13.2) ([2]; human NTERA-2 cells, autocrine, unpublished results): ≤ 10 min; gene expression of NRP 13q13.2 [2, 3]: highly elevated after only 15 minutes; time of peak NRP 13q13.2 gene expression after peptide contact [2, 3]: 30 min
